Like-named read-outs stand apart in the source and are kept apart here.
Key:
Type in all cases: in vivo
human 11β-HSD type 1 [1] = target: T1, human 11β-HSD type 1 (Homo sapiens, UniProt P28845); test: Bioactivity of inguinal white adipose tissue after single oral administration in C57BL/6N mice, read as inhibition of human 11β-HSD type 1 (SPA); details: mouse inguinal white adipose tissue extract
Experimental: Four hours post-administration, the mice are euthanized and inguinal white adipose tissue is taken and frozen at −70° C. until the day of bioanalyses. The white adipose tissue is homogenized in liquid nitrogen and then treated with acetonitrile (1 ml of distilled water for 4 ml of acetonitrile and 200 mg of inguinal white adipose tissue) to extract soluble substances. The acetonitrile fraction is collected, then dried, and the residue is dissolved in 1 ml of DMSO for 300 mg of white adipose tissue.
Compounds tested: the same as those of Example 2.

human 11β-HSD type 1 [2] = target: T1, human 11β-HSD type 1; test: Plasma bioactivity after single oral administration in C57BL/6N mice, read as inhibition of human 11β-HSD type 1 (SPA); details: for inhibition at 2.5 mg/kg: 2.5 mg/kg oral; for inhibition at 2.5 mg/kg / inhibition at 10 mg/kg: table with plasma levels; for inhibition at 10 mg/kg: 10 mg/kg oral
Experimental: (§1) The evaluation is made in on 4- to 6-week-old non-fasted male C57BL/6N strain mice. The compounds to be tested or the vehicle (0.5% methylcellulose in water, at 10 ml/kg) are administered orally; n=3 mice per treatment.
(§2) Blood samples are collected 1 h and 4 h after administration; the tubes are centrifuged to obtain plasma and frozen at −70° C. until bioanalysis. Plasma bioactivity (2% final volume) is analyzed by using the inhibition of human 11β-HSD type 1 as a detection system (SPA technology) for each compound at each dose tested. Percent inhibition (versus mice treated with carrier) is calculated for each dose.

11β-HSD type 1 = test: Inhibition of conversion of prednisone to prednisolone after single administration to cynomolgus monkeys; details: for inhibition of plasma prednisolone/prednisone ratio of AUC (30 minutes to 4 hours): prednisone 10 mg/kg 2 h later; for inhibition of the prednisolone/prednisone ratio in animals that respond favorably: responders only
Experimental: The protocol used is described by Bhat et al. (J. Pharmacol. Exp. Ther. 324, 299-305, 2008).
(§3) Briefly, the study is carried out in naive adult male cynomolgus monkeys fasted overnight. The 11β-HSD type 1 inhibitor or its vehicle (0.5% methylcellulose in water) is administered via nasogastric intubation. Two hours later, a challenge with orally administered prednisone (10 mg/kg) is performed and blood samples are taken regularly for 24 hours. These samples are centrifuged to obtain plasma and immediately frozen at −70° C. until bioanalysis. Plasma levels of prednisone, prednisolone and 11β-HSD type 1 inhibitors are measured by LC-MS/MS analytical methods.
(§4) The study is carried out over a period of 10 weeks. Profiles of plasma concentration as a function of time and areas under the curve are calculated using the trapezoidal method for all parameters.
The effect of Compound 1 is evaluated at three doses: 1.25, 5 and 20 mg/kg.
The effect of Compound 1K is evaluated at three doses: 20, 40 and 80 mg/kg. The protocol is quite similar to the preceding, except that only 5 blood samples were taken per monkey rather than 7. Compound 1K was also evaluated over a period of 10 weeks.
The 11β-HSD type 1 activity-dependent conversion of prednisone to prednisolone was evaluated. Compound 2K inhibits roughly 50% this activity at a dose of 20 mg/kg (FIG. 2A). FIG. 2 represents the effects of Compound 2K, at the three doses tested, on plasma prednisolone/prednisone ratio calculated with the area under the curve between 30 minutes and 4 hours (panel A) and on plasma exposure during the 6-hour experimental period (panel B); the results obtained with Compound 1K at a dose of 5 mg/kg are compared in the two panels.

[3] = Plasma level by LC/MS after single oral administration in C57BL/6N mice; details: parent molecule by LC/MS
Experimental: as §1, §2
Compound 1 is detected in the plasma of the treated mice and inhibits 11β-HSD type 1 as of 0.63 mg/kg. LC/MS analyses of plasma samples from the animals treated with Compound 1K show a much higher plasma level of the parent molecule than that found for Compound 1.

[4] = Clinical and behavioral signs in cynomolgus monkeys during the prednisone challenge studies; details: study no. 1, 1.25, 5 and 20 mg/kg
Experimental: as §3, §4

[5] = mouse plasma (2% final volume), 1 h after 0.63 mg/kg oral
[6] = mouse plasma, 1 h after 2.5 mg/kg oral
[7] = mouse plasma, 1 h after 10 mg/kg oral
[8] = mouse plasma, 4 h after 0.63 mg/kg oral
[9] = mouse plasma, 4 h after 2.5 mg/kg oral
[10] = mouse plasma, 4 h after 10 mg/kg oral
[11] = mice, 1 h, read-out: Plasma 1 h % inh.
[12] = mice, 4 h, read-out: Plasma 4 h % inh.
[13] = mouse plasma, 1 h after 40 mg/kg oral
[14] = mouse plasma, 4 h after 40 mg/kg oral

T1 sequence (P28845 whole entry): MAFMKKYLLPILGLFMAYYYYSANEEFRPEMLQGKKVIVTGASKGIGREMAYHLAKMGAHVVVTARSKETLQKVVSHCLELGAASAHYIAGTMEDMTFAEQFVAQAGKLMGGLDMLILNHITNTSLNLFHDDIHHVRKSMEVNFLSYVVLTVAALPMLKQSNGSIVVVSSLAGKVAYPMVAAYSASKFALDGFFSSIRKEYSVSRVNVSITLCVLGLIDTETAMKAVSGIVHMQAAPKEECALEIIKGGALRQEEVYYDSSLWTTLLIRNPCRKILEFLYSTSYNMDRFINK

| Compound | % inhibition after 4 h (human 11β-HSD type 1 [1]; 4 h after 0.63 mg/kg oral) | % inhibition after 4 h (human 11β-HSD type 1 [1]; 4 h after 2.5 mg/kg oral) | % inhibition after 4 h (human 11β-HSD type 1 [1]; 4 h after 10 mg/kg oral) | % inhibition at 1 h (human 11β-HSD type 1 [2]; [5]) | % inhibition at 1 h (human 11β-HSD type 1 [2]; [6]) | % inhibition at 1 h (human 11β-HSD type 1 [2]; [7]) | % inhibition at 4 h (human 11β-HSD type 1 [2]; [8]) | % inhibition at 4 h (human 11β-HSD type 1 [2]; [9]) | % inhibition at 4 h (human 11β-HSD type 1 [2]; [10]) | inhibition of plasma prednisolone/prednisone ratio of AUC (30 minutes to 4 hours) (11β-HSD type 1; 20 mg/kg) | % inhibition after 4 h (human 11β-HSD type 1 [1]; 4 h after 40 mg/kg oral) | % inhibition at 1 h (human 11β-HSD type 1 [2]; [13]) | % inhibition at 4 h (human 11β-HSD type 1 [2]; [14]) | further results |
| --- | --- | --- | --- | --- | --- | --- | --- | --- | --- | --- | --- | --- | --- | --- |
| CN1C(C(=O)c2ccc(-c3ccc(C#N)cc3)cc2)=C([O-])c2ccccc2S1(=O)=O.[K+] [Compound 2K, potassium 3-(4′-cyanobiphenyl-4-carbonyl)-2-methyl-2H-benzo[e][1,2]thiazin-4-olate 1,1-dioxide, reference compound] | 17% | 46% | 72% | 26% | 63% | 84% | 29% | 65% | 86% | roughly 50% |  |  |  | activity on conversion of prednisone to prednisolone (11β-HSD type 1; doses below 20 mg/kg (1.25, 5 mg/kg)): inactive |
| CN1C(C(=O)c2ccc3ccccc3c2)=C(O)c2ccccc2S1(=O)=O [Compound 1, (4-hydroxy-2-methyl-1,1-dioxido-2H-benzo[e][1,2]thiazin-3-yl)(naphthalen-2-yl)methanone] | 8% | 36% | 63% | 40% | 64% | 81% | 31% | 60% | 81% | 34% | 79% | 93% | 94% | Plasma 1 h ([3]; 2.5 mg/kg oral): 2598 ± 1478 ng/mL; Plasma 4 h ([3]; 2.5 mg/kg oral): 2205 ± 1250 ng/mL; Plasma 1 h ([3]; 10 mg/kg oral): 3675 ± 1781 ng/mL; Plasma 4 h ([3]; 10 mg/kg oral): 3823 ± 2011 ng/mL; inhibition at 2.5 mg/kg (human 11β-HSD type 1 [2]; [11]): 65 ± 8%; inhibition at 2.5 mg/kg (human 11β-HSD type 1 [2]; [12]): 58 ± 5%; inhibition at 10 mg/kg (human 11β-HSD type 1 [2]; [11]): 75 ± 8%; inhibition at 10 mg/kg (human 11β-HSD type 1 [2]; [12]): 73 ± 4%; dose as of which plasma of treated mice inhibits 11β-HSD type 1 (human 11β-HSD type 1 [2]; mice, single oral administration): 0.63 mg/kg; animals that respond favorably to the treatment (11β-HSD type 1; 5 mg/kg): 60%; inhibition of the prednisolone/prednisone ratio in animals that respond favorably (11β-HSD type 1; 5 mg/kg): 28%; animals that respond favorably to the treatment (11β-HSD type 1; 20 mg/kg): 80%; inhibition of the prednisolone/prednisone ratio in animals that respond favorably (11β-HSD type 1; 20 mg/kg): 46%; dose as of which inhibition of 11β-HSD type 1 is significant and dose-dependent (11β-HSD type 1; doses 1.25, 5 and 20 mg/kg): 5 mg/kg; clinical or behavioral sign [4]: No particular clinical or behavioral sign |
| C1CCc2nnc(C34CC5CC(CC(C5)C3)C4)n2CC1 [Compound 3, 3-(1-adamantyl)-6,7,8,9-tetrahydro-5H-[1,2,4]triazolo[4,3-a]azepine, reference compound] |  |  | 15% |  |  | 93% |  |  | 22% |  | 8% | 98% | 68% | % inhibition after 4 h (human 11β-HSD type 1 [1]; 4 h after 80 mg/kg oral): 13%; % inhibition at 1 h (human 11β-HSD type 1 [2]; mouse plasma, 1 h after 80 mg/kg oral): 101%; % inhibition at 4 h (human 11β-HSD type 1 [2]; mouse plasma, 4 h after 80 mg/kg oral): 94% |
